By EC50 is commonly meant the concentration needed to bring the measured effect to its halfway point.

Activity calls are given as the source filed them.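 The calls were made as follows: active = mean EC50 below 100 µM; inactive = the rest.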

The target in this test is placental alkaline phosphatase (human). Briefly: effect of analogs on PLAP activity, SAR follow-up, selectivity assay for mouse IAP activator project, biochemical, human PLAP, set 2 (AID 588607). The note with it: purified PLAP, CDP-Star luminescence, 30 min.
For the compound `CC1CC(NC(=S)Nc2cccc(S(=O)(=O)N(C)C)c2)CC(C)N1` (stereo unspecified), the EC50 was > 100 µM (inactive).

Consider `O=S(=O)(c1ccc(NC(=S)NCc2cccc(F)c2)cc1)N1CCCCC1`, for which the IC50 (inhibition of PLAP activity) was 78.1 µM.

`CN(CCc1ccccn1)C(=S)Nc1cccc(S(=O)(=O)N(C)C)c1`: the EC50 is > 100 µM (inactive).

`CN(C)S(=O)(=O)c1cccc(NC(=S)NC(c2ccccc2)c2ccccc2)c1`: the IC50 (inhibition of PLAP activity) is 31.2 µM.

As for `CN(C)S(=O)(=O)c1cccc(NC(=S)NCCCn2ccnc2)c1`, the EC50 is > 100 µM (inactive).

Regarding `O=C(NC(=S)Nc1cc(S(=O)(=O)N2CCOCC2)ccc1O)c1ccco1`, the IC50 (inhibition of PLAP activity) was 43.6 µM.

Consider `CN(C)S(=O)(=O)c1cccc(NC(=S)NCCc2ccc(Br)cc2)c1`, for which the IC50 (inhibition of PLAP activity) is 92 µM.

As to `Cc1ccc(S(=O)(=O)N(C)C)cc1NC(=S)NC1CCN(Cc2ccccc2)CC1`, the EC50 was > 100 µM (inactive).

With `Cc1ccc(S(=O)(=O)N(C)C)cc1NC(=S)NCCCn1ccnc1`, the EC50 is > 100 µM (inactive).

As to `CN(C)S(=O)(=O)c1cccc(NC(=S)NCc2ccc(Cl)cc2)c1`, the EC50 was > 100 µM (inactive).

With `CN(C)S(=O)(=O)c1ccc(NC(=S)NCCc2ccccc2)cc1`, the EC50 is > 100 µM (inactive).

As to `CN(C)S(=O)(=O)c1ccc(NC(=S)NC(c2ccccc2)c2ccccc2)cc1`, the IC50 (inhibition of PLAP activity) is 29 µM.

Regarding `CN(C)S(=O)(=O)c1cccc(NC(=S)NCCCN2CCCC2=O)c1`, the EC50 was > 100 µM (inactive).

`CN(C)S(=O)(=O)c1ccc(NC(=S)NCc2ccc(Cl)cc2)cc1`: the EC50 was > 100 µM (inactive).

Regarding `O=c1c2ccccc2[nH]c(=S)n1-c1cccc(S(=O)(=O)N2CCCC2)c1`, the EC50 was > 100 µM (inactive).

With `COc1cccc(CNC(=S)Nc2ccc(S(=O)(=O)N(C)C)cc2)c1`, the IC50 (inhibition of PLAP activity) is 91 µM.

Take `CN(C)S(=O)(=O)c1ccc(NC(=S)NCCc2cccc(O)c2)cc1`: the EC50 is > 100 µM (inactive).

On to `Cc1ccc(S(=O)(=O)N(C)C)cc1NC(=S)NC(C)CCC(C)C` (stereo unspecified), for which the IC50 (inhibition of PLAP activity) is 78.5 µM.

For `O=S(=O)(c1ccc(NC(=S)NCC(c2ccccc2)c2ccccc2)cc1)N1CCCCC1`, the IC50 (inhibition of PLAP activity) is 29.6 µM.

With `CN(C)S(=O)(=O)c1ccc(NC(=S)NCCc2cccc(Br)c2)cc1`, the IC50 (inhibition of PLAP activity) was 57 µM.

For `O=C(NC(=S)Nc1cc(S(=O)(=O)N2CCOCC2)ccc1N1CCOCC1)c1ccco1`, the EC50 is > 100 µM (inactive).

Regarding `CN(C)S(=O)(=O)c1cccc(NC(=S)NCCc2cccc(F)c2)c1`, the EC50 was > 100 µM (inactive).

As for `Cc1ccc(CNC(=S)Nc2cccc(S(=O)(=O)N(C)C)c2)cc1`, the IC50 (inhibition of PLAP activity) is 82.8 µM.

On to `O=S(=O)(c1ccc(NC(=S)NCC(c2ccccc2)c2ccccc2)cc1)N1CCCC1`, for which the IC50 (inhibition of PLAP activity) was 19.5 µM.

Consider `CN(C)CCCNC(=S)Nc1cccc(S(=O)(=O)N(C)C)c1`, for which the EC50 was > 100 µM (inactive).

Turning to `O=S(=O)(c1ccc(NC(=S)NC(c2ccccc2)c2ccccc2)cc1)N1CCCC1`, the IC50 (inhibition of PLAP activity) was 22.1 µM.

With `CCN(CC)c1ccc(C(=O)NC(=S)Nc2cc(S(=O)(=O)N3CCOCC3)ccc2-n2cncn2)cc1`, the EC50 is > 100 µM (inactive).

For `CN(C)S(=O)(=O)c1cccc(NC(=S)NCCc2cccc(Br)c2)c1`, the IC50 (inhibition of PLAP activity) is 73 µM.

Consider `O=S(=O)(c1ccc(NC(=S)NCCC(c2ccccc2)c2ccccc2)cc1)N1CCCCC1`, for which the IC50 (inhibition of PLAP activity) was 38.6 µM.

Take `CCN(CC)S(=O)(=O)c1ccc(NC(=S)NCCC(c2ccccc2)c2ccccc2)cc1`: the IC50 (inhibition of PLAP activity) was 52.5 µM.

In the case of `CN(C)S(=O)(=O)c1ccc(NC(=S)NCC(c2ccccc2)c2ccccc2)cc1`, the IC50 (inhibition of PLAP activity) was 40.8 µM.

As for `COc1ccc(CCNC(=S)Nc2ccc(S(=O)(=O)N3CCCCC3)cc2)cc1`, the IC50 (inhibition of PLAP activity) is 70.8 µM.

In the case of `CC1CCN(S(=O)(=O)c2ccc(NC(=S)NC(c3ccccc3)c3ccccc3)cc2)CC1`, the IC50 (inhibition of PLAP activity) is 47.2 µM.

As to `CN(C)S(=O)(=O)c1cccc(NC(=S)NCCc2ccc(F)cc2)c1`, the EC50 is > 100 µM (inactive).

In the case of `CCCCCCC(C)NC(=S)Nc1cc(S(=O)(=O)N(C)C)ccc1C` (stereo unspecified), the EC50 was > 100 µM (inactive).

On to `Cc1ccc(C)c(NC(=S)Nc2ccc(S(=O)(=O)N3CCCCC3)cc2)c1`, for which the EC50 is > 100 µM (inactive).

Take `CN(C)S(=O)(=O)c1cccc(NC(=S)NCCC(c2ccccc2)c2ccccc2)c1`: the IC50 (inhibition of PLAP activity) was 93 µM.

As for `CN(C)S(=O)(=O)c1cccc(NC(=S)NCCN2CCCC2)c1`, the EC50 is > 100 µM (inactive).

Regarding `COc1cccc(CCNC(=S)Nc2cccc(S(=O)(=O)N(C)C)c2)c1`, the IC50 (inhibition of PLAP activity) was 78.6 µM.

`Cc1ccc(S(=O)(=O)N(C)C)cc1NC(=S)NC(C)CCCC(C)C` (stereo unspecified): the IC50 (inhibition of PLAP activity) is 66.1 µM.

For the compound `Cc1ccc(S(=O)(=O)N(C)C)cc1NC(=S)NC(=O)C12CC3CC(CC(C3)C1)C2`, the EC50 is > 100 µM (inactive).

As for `O=C(CCc1ccccc1)NC(=S)Nc1cccc(S(=O)(=O)N2CCCC2)c1`, the EC50 was > 100 µM (inactive).

As for `COc1ccccc1CNC(=S)Nc1ccc(S(=O)(=O)N(C)C)cc1`, the IC50 (inhibition of PLAP activity) was 69.6 µM.

As for `CC1CCN(S(=O)(=O)c2ccc(NC(=S)NCCC(c3ccccc3)c3ccccc3)cc2)CC1`, the IC50 (inhibition of PLAP activity) is 31.9 µM.

As to `CCOc1cc(CCNC(=S)Nc2ccc(S(=O)(=O)N(C)C)cc2)ccc1OC`, the IC50 (inhibition of PLAP activity) is 89.9 µM.

Regarding `CN(C)S(=O)(=O)c1cccc(NC(=S)NCCc2ccccc2)c1`, the IC50 (inhibition of PLAP activity) was 86.6 µM.

Take `CC(CCc1ccccc1)NC(=S)Nc1cccc(S(=O)(=O)N(C)C)c1` (stereo unspecified): the IC50 (inhibition of PLAP activity) is 69.2 µM.

With `CN(C)S(=O)(=O)c1cccc(NC(=S)NCC(c2ccccc2)c2ccccc2)c1`, the IC50 (inhibition of PLAP activity) is 35.9 µM.

Take `CN(C)S(=O)(=O)c1ccc(NC(=S)NCCC(c2ccccc2)c2ccccc2)cc1`: the IC50 (inhibition of PLAP activity) was 35 µM.

In the case of `CN(C)S(=O)(=O)c1ccc(NC(=S)NCCN2CCCC2)cc1`, the EC50 was > 100 µM (inactive).

Turning to `CC(CNC(=S)Nc1cccc(S(=O)(=O)N(C)C)c1)N1CCN(c2ccccc2)CC1` (stereo unspecified), the EC50 is > 100 µM (inactive).

For `CN(C)S(=O)(=O)c1cccc(NC(=S)NC(C)(C)CC(C)(C)C)c1`, the IC50 (inhibition of PLAP activity) is 85.7 µM.

Regarding `CN(C)S(=O)(=O)c1cccc(NC(=S)NCCC(=O)N2CCCC2)c1`, the EC50 was > 100 µM (inactive).

As to `O=S(=O)(c1ccc(NC(=S)NC(c2ccccc2)c2ccccc2)cc1)N1CCCCC1`, the IC50 (inhibition of PLAP activity) was 16.6 µM.

`CN(CCc1ccccc1)C(=S)Nc1cccc(S(=O)(=O)N(C)C)c1`: the EC50 is > 100 µM (inactive).

On to `Cc1ccccc1CNC(=S)Nc1ccc(S(=O)(=O)N(C)C)cc1`, for which the IC50 (inhibition of PLAP activity) was 71.8 µM.

Consider `COc1ccc(CNC(=S)Nc2ccc(S(=O)(=O)N3CCCCC3)cc2)cc1OC`, for which the IC50 (inhibition of PLAP activity) is 68.6 µM.

In the case of `O=S(=O)(c1ccc(NC(=S)NCCC(c2ccccc2)c2ccccc2)cc1)N1CCCC1`, the IC50 (inhibition of PLAP activity) is 42 µM.

As for `O=S(=O)(c1ccc(NC(=S)NCc2cccc(Cl)c2)cc1)N1CCCCC1`, the IC50 (inhibition of PLAP activity) was 84.9 µM.

`COc1ccc(CCNC(=S)Nc2ccc(S(=O)(=O)N3CCCCC3)cc2)cc1OC`: the IC50 (inhibition of PLAP activity) is 81.9 µM.

As to `CCN(CC)CCCNC(=S)Nc1cccc(S(=O)(=O)N(C)C)c1`, the EC50 is > 100 µM (inactive).

With `CN(C)CC(C)(C)CNC(=S)Nc1cccc(S(=O)(=O)N(C)C)c1`, the EC50 is > 100 µM (inactive).

Take `CCN(CC)S(=O)(=O)c1ccc(NC(=S)NC(c2ccccc2)c2ccccc2)cc1`: the IC50 (inhibition of PLAP activity) was 26.3 µM.

For `CCN(CC)S(=O)(=O)c1ccc(NC(=S)NCC(c2ccccc2)c2ccccc2)cc1`, the IC50 (inhibition of PLAP activity) was 30.1 µM.

With `CN(C)S(=O)(=O)c1cccc(NC(=S)NCCc2cccc(O)c2)c1`, the EC50 is > 100 µM (inactive).

As for `Cc1ccc(CNC(=S)Nc2ccc(S(=O)(=O)N(C)C)cc2)cc1`, the IC50 (inhibition of PLAP activity) was 78.6 µM.

For the origin of these results see PubChem BioAssay AID588607 (Sanford-Burnham Center for Chemical Genomics, 2011).
